Laboratory results from patent US8796289B2 (AbbVie Inc., priority 2011, dated 2014).

Molecular target: GST-tagged-Wee1 kinase (Homo sapiens, UniProt P30291)
Experiment: Wee1 time-resolved fluorescence equilibrium binding assay (displacement of Oregon Green-labeled ATP-competitive kinase probe)
Method: Wee1 kinase was assayed using a time-resolved fluorescence equilibrium binding assay monitoring displacement of a rapidly reversible Oregon Green-labeled ATP-competitive kinase probe (N-(2-(2-(2-(4-(4-(5-chloro-4-(2-(1-hydroxycyclobutyl)thiazol-5-yl)-1H-pyrrolo[2,3-b]pyridin-2-yl)phenyl)piperazin-1-yl)ethoxy)ethoxy)ethyl)-2′,7′-difluoro-3′,6′-dihydroxy-3-oxo-3H-spiro[isobenzofuran-1,9′-xanthene]-5-carboxamide) by competitive Wee1 inhibitors.

GST-tagged-Wee1 kinase, sequence (P30291 whole entry): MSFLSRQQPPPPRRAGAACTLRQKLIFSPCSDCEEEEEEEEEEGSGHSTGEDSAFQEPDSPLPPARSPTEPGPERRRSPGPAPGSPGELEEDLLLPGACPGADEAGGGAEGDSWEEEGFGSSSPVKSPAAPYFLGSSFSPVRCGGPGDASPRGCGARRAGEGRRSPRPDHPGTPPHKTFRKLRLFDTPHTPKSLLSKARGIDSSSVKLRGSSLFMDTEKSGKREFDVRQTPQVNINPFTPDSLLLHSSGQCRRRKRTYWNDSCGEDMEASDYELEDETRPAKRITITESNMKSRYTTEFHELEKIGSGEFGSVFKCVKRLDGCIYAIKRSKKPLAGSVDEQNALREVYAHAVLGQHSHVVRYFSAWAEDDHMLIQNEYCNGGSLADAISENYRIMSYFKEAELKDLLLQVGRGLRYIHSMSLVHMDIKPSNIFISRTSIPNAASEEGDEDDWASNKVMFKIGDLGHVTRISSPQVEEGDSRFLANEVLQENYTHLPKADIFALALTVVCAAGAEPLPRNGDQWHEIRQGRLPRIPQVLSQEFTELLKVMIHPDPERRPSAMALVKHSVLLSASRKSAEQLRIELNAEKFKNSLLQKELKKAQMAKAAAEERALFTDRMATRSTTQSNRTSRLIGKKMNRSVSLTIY

Structure (SMILES) | Ki
CN1CCN(c2ccc(Nc3ncc4c(=O)n(-c5c(Cl)cccc5Cl)nc(-c5ccn(CCO)n5)c4n3)cc2)CC1 [Example 270, 6-(2,6-dichlorophenyl)-8-[1-(2-hydroxyethyl)-1H-pyrazol-3-yl]-2-{[4-(4-methylpiperazin-1-yl)phenyl]amino}pyrimido[4,5-d]pyridazin-5(6H)-one] | < 1 nM
CN1CCN(c2ccc(Nc3ncc4c(=O)n(-c5ccccc5Cl)nc(Cc5ccccc5)c4n3)cc2)CC1 [Example 26, 8-benzyl-6-(2-chlorophenyl)-2-{[4-(4-methylpiperazin-1-yl)phenyl]amino}pyrimido[4,5-d]pyridazin-5(6H)-one] | 12 nM
Cc1ccccc1-n1nc(Cc2ccccc2)c2nc(Nc3ccc(N4CCN(C)CC4)cc3)ncc2c1=O [Example 20, 8-benzyl-6-(2-methylphenyl)-2-{[4-(4-methylpiperazin-1-yl)phenyl]amino}pyrimido[4,5-d]pyridazin-5(6H)-one] | 19 nM
CN1CCN(c2ccc(Nc3ncc4c(=O)n(-c5ccccc5)nc(-c5cccnc5)c4n3)cc2)CC1 [Example 100, 2-{[4-(4-methylpiperazin-1-yl)phenyl]amino}-6-phenyl-8-(pyridin-3-yl)pyrimido[4,5-d]pyridazin-5(6H)-one] | 14 nM
CN1CCc2ccc(Nc3ncc4c(=O)n(-c5c(Cl)cccc5Cl)nc(C(F)F)c4n3)cc2C1 [Example 475, 6-(2,6-dichlorophenyl)-8-(difluoromethyl)-2-[(2-methyl-1,2,3,4-tetrahydroisoquinolin-7-yl)amino]pyrimido[4,5-d]pyridazin-5(6H)-one] | 0.24 nM
O=C1CCCN1c1ccc(-c2nn(-c3c(Cl)cccc3Cl)c(=O)c3cnc(Nc4ccc(N5CCNCC5)cc4)nc23)cc1 [Example 229, 6-(2,6-dichlorophenyl)-8-[4-(2-oxopyrrolidin-1-yl)phenyl]-2-{[4-(piperazin-1-yl)phenyl]amino}pyrimido[4,5-d]pyridazin-5(6H)-one] | 0.2 nM
Cc1nn(-c2c(Cl)cccc2Cl)c(=O)c2cnc(Nc3cccc(C(=O)N4CCC(N(C)C)CC4)c3)nc12 [Example 519, 6-(2,6-dichlorophenyl)-2-[(3-{[4-(dimethylamino)piperidin-1-yl]carbonyl}phenyl)amino]-8-methylpyrimido[4,5-d]pyridazin-5(6H)-one] | 0.75 nM
Cc1nn(-c2ncccc2Cl)c(=O)c2cnc(Nc3ccc4c(c3)CN(C)CC43CC3)nc12 [Example 351, 6-(3-chloropyridin-2-yl)-8-methyl-2-[(2′-methyl-2′,3′-dihydro-1′H-spiro[cyclopropane-1,4′-isoquinolin]-7′-yl)amino]pyrimido[4,5-d]pyridazin-5(6H)-one] | 1.1 nM
CCc1nn(-c2c(Cl)cccc2Cl)c(=O)c2cnc(Nc3ccc4c(c3)CNC(=O)C4)nc12 [Example 464, 6-(2,6-dichlorophenyl)-8-ethyl-2-[(3-oxo-1,2,3,4-tetrahydroisoquinolin-7-yl)amino]pyrimido[4,5-d]pyridazin-5(6H)-one] | 1.6 nM
CN1CCN(c2ccc(Nc3ncc4c(=O)n(-c5c(Cl)cccc5Cl)nc(-c5ccn(CCCl)n5)c4n3)cc2)CC1 [Example 234, 8-[1-(2-chloroethyl)-1H-pyrazol-3-yl]-6-(2,6-dichlorophenyl)-2-{[4-(4-methylpiperazin-1-yl)phenyl]amino}pyrimido[4,5-d]pyridazin-5(6H)-one] | 0.3 nM
C=CCn1nc(-c2ccccc2F)c2nc(Nc3ccc(N4CCN(C)CC4)cc3)ncc2c1=O [Example 35, 6-allyl-8-(2-fluorophenyl)-2-{[4-(4-methylpiperazin-1-yl)phenyl]amino}pyrimido[4,5-d]pyridazin-5(6H)-one] | 18 nM
CN1CCN(c2ccc(Nc3ncc4c(=O)n(-c5c(Cl)cccc5Cl)nc(-c5cccc(C(C)(C)O)n5)c4n3)cc2)CC1 [Example 160, 6-(2,6-dichlorophenyl)-8-[6-(2-hydroxypropan-2-yl)pyridin-2-yl]-2-{[4-(4-methylpiperazin-1-yl)phenyl]amino}pyrimido[4,5-d]pyridazin-5(6H)-one] | 0.1 nM
CN1CCN(c2ccc(Nc3ncc4c(=O)n(-c5c(Cl)cccc5Cl)nc(-c5ccnc(C(C)(C)O)c5)c4n3)cc2)CC1 [Example 250, 6-(2,6-dichlorophenyl)-8-[2-(2-hydroxypropan-2-yl)pyridin-4-yl]-2-{[4-(4-methylpiperazin-1-yl)phenyl]amino}pyrimido[4,5-d]pyridazin-5(6H)-one] | 0.2 nM
C=CCn1nc(-c2ccccc2)c2nc(Nc3ccc(CN(C)C)cc3)ncc2c1=O [Example 143, 6-allyl-2-({4-[(dimethylamino)methyl]phenyl}amino)-8-phenylpyrimido[4,5-d]pyridazin-5(6H)-one] | 39 nM
C=CCn1nc(-c2cccs2)c2nc(Nc3ccc(N4CCN(C(C)C)CC4)c(C)c3)ncc2c1=O [Example 127, 6-allyl-2-{[4-(4-isopropylpiperazin-1-yl)-3-methylphenyl]amino}-8-(2-thienyl)pyrimido[4,5-d]pyridazin-5(6H)-one] | 4 nM
CN1CCN(c2ccc(Nc3ncc4c(=O)n(-c5ccccc5Cl)nc(-c5ccc(-c6ncccn6)cc5)c4n3)cc2)CC1 [Example 61, 6-(2-chlorophenyl)-2-{[4-(4-methylpiperazin-1-yl)phenyl]amino}-8-[4-(pyrimidin-2-yl)phenyl]pyrimido[4,5-d]pyridazin-5(6H)-one] | < 1 nM
O=c1c2cnc(Nc3ccc4c(c3)CNCC4)nc2c(-c2ccncc2)nn1-c1c(Cl)cccc1Cl [Example 224, 6-(2,6-dichlorophenyl)-8-(pyridin-4-yl)-2-(1,2,3,4-tetrahydroisoquinolin-7-ylamino)pyrimido[4,5-d]pyridazin-5(6H)-one] | 0.07 nM
CCCc1nn(-c2ccccc2C)c(=O)c2cnc(Nc3ccc(N4CCN(C)CC4)cc3)nc12 [Example 18, 6-(2-methylphenyl)-2-{[4-(4-methylpiperazin-1-yl)phenyl]amino}-8-propylpyrimido[4,5-d]pyridazin-5(6H)-one] | 4 nM
CN1CCN(c2ccc(Nc3ncc4c(=O)n(-c5ccccc5)nc(-c5ccc(Cl)cc5Cl)c4n3)cc2)CC1 [Example 42, 8-(2,4-dichlorophenyl)-2-{[4-(4-methylpiperazin-1-yl)phenyl]amino}-6-phenylpyrimido[4,5-d]pyridazin-5(6H)-one] | 400 nM
Cc1ccccc1-n1nc(-c2ccccc2)c2nc(Nc3ccc(S(=O)(=O)N4CCOCC4)cc3)ncc2c1=O [Example 109, 6-(2-methylphenyl)-2-{[4-(morpholin-4-ylsulfonyl)phenyl]amino}-8-phenylpyrimido[4,5-d]pyridazin-5(6H)-one] | > 3140 nM
CN1CCN(c2ccc(Nc3ncc4c(=O)n(-c5ccccc5C(F)(F)F)nc(-c5ccccc5)c4n3)cc2)CC1 [Example 31, 2-{[4-(4-methylpiperazin-1-yl)phenyl]amino}-8-phenyl-6-[2-(trifluoromethyl)phenyl]pyrimido[4,5-d]pyridazin-5(6H)-one] | 0.8 nM
Cc1nn(-c2c(Cl)cccc2Cl)c(=O)c2cnc(Nc3ccc(N4CCN(C5COC5)CC4)cc3)nc12 [Example 445, 6-(2,6-dichlorophenyl)-8-methyl-2-({4-[4-(oxetan-3-yl)piperazin-1-yl]phenyl}amino)pyrimido[4,5-d]pyridazin-5(6H)-one] | 0.33 nM
